These molecules were tested against LRRK2 G2019S (Homo sapiens, UniProt Q5S007, G2019S) (assay: LRRK2 G2019S Km ATP LanthaScreen assay). Settings: read-out: LRRK2 pIC50 (converted).
Assay type: biochemical

Sequence of LRRK2 G2019S (Q5S007 whole entry G2019S): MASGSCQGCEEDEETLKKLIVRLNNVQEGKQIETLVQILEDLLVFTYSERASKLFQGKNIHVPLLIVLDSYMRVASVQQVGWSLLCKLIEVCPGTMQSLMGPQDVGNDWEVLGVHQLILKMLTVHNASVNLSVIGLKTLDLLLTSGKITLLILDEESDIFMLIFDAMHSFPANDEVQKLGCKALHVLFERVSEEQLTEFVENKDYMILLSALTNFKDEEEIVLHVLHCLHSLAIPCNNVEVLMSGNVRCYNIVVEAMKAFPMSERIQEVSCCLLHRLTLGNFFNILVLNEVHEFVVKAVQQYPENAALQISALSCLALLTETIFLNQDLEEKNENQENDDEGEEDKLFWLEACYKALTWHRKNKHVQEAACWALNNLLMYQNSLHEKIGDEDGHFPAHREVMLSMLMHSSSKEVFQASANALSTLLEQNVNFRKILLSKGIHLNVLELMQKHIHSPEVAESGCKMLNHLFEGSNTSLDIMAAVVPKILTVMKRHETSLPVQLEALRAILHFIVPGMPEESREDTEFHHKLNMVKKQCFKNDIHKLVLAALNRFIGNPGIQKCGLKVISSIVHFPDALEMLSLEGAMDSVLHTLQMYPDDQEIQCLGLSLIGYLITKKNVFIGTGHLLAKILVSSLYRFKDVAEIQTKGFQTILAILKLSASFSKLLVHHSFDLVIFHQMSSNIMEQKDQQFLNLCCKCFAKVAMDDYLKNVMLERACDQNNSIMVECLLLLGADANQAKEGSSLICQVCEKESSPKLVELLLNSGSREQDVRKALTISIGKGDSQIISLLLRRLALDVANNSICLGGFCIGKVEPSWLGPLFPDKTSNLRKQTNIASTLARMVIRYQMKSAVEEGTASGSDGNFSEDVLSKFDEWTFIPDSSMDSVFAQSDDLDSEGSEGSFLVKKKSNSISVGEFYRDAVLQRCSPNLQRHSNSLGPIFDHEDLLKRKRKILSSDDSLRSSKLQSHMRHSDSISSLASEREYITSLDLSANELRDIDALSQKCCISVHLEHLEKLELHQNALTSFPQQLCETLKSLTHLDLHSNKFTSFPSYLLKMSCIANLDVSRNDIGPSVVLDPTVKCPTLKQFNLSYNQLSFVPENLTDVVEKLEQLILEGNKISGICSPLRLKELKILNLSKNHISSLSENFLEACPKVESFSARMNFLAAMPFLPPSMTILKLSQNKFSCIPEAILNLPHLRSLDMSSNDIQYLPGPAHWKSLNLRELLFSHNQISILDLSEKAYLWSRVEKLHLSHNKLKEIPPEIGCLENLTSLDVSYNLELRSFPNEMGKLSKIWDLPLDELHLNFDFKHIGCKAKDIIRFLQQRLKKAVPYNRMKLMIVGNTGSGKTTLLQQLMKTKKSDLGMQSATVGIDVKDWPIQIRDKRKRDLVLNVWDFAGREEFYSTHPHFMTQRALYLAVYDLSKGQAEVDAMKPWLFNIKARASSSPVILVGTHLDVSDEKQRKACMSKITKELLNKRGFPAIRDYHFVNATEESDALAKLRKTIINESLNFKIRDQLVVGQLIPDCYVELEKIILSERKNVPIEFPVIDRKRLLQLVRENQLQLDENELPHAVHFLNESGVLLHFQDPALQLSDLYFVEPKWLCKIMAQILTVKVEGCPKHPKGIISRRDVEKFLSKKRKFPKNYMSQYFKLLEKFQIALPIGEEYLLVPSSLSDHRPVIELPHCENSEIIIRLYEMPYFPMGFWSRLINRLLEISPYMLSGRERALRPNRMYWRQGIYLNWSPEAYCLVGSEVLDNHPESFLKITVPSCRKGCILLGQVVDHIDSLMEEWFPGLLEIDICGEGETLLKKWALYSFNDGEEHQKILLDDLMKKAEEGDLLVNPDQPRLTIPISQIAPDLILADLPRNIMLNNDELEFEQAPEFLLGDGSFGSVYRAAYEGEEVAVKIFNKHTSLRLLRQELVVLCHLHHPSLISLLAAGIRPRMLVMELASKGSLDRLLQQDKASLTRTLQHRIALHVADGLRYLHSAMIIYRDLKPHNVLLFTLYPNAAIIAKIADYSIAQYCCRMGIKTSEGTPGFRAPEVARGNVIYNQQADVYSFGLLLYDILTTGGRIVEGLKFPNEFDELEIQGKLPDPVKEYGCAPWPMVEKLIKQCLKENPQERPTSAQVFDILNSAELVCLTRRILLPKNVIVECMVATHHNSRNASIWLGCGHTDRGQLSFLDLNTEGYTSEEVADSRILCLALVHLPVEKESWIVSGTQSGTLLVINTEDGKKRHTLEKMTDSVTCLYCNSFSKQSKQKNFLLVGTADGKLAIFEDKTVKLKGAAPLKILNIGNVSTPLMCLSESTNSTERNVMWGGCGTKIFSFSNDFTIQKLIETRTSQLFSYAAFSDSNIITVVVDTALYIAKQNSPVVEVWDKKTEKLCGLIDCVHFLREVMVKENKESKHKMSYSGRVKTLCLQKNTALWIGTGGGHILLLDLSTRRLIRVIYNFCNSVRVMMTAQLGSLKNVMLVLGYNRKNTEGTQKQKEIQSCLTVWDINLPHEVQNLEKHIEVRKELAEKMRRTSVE

IC50 | Compound
457 nM | Cn1ncc(C2CC2C(=O)Nc2cc3cc(C4(C#N)CC45CC5)ccc3cn2)c1C(F)(F)F (stereo not drawn) [Ex-2.47]
2.69 nM | Cc1cc2cnc(NC(=O)C3CC34CCOC4)cc2cc1C1CCN(C2(C)COCC2F)CC1 (single isomer, unassigned) [Ex-15.13, N-(6-(1-(4-fluoro-3-methyltetrahydrofuran-3-yl)piperidin-4-yl)-7-methylisoquinolin-3-yl)-5-oxaspiro[2.4]heptane-1-carboxamide]
7.94 nM | CCOC1CC2(C1)CC2C(=O)Nc1cc2cc(C3CCN(C4(C)COCC4O)CC3)c(Cl)cc2cn1 (single isomer, unassigned) [Ex-4.29, N-(7-chloro-6-(1-(4-hydroxy-3-methyltetrahydrofuran-3-yl)piperidin-4-yl)isoquinolin-3-yl)-5-ethoxyspiro[2.3]hexane-1-carboxamide]
0.977 nM | CC(C)C1CC(C(=O)Nc2cc3cc(C4CCN(C5(C)COCC5O)CC4)c(Cl)cc3cn2)C1 (racemic) [Ex-1.22, Rac-N-(7-chloro-6-(1-(4-hydroxy-3-methyltetrahydrofuran-3-yl)piperidin-4-yl)isoquinolin-3-yl)-3-isopropylcyclobutane-1-carboxamide]
219 nM | Cc1cc2cnc(NC(=O)C3CC34CCOC4)cc2cc1C1CCN(C2(C)COCC2F)CC1 (single isomer, unassigned) [Ex-15.8, N-(6-(1-(4-fluoro-3-methyltetrahydrofuran-3-yl)piperidin-4-yl)-7-methylisoquinolin-3-yl)-5-oxaspiro[2.4]heptane-1-carboxamide]
21.4 nM | Cc1cc2cnc(NC(=O)C3CC3C(C)(C)F)cc2cc1C1CCN(C2(C)COCC2O)CC1 (single isomer, unassigned) [Ex-15.5, 2-(2-fluoropropan-2-yl)-N-(6-(1-(4-hydroxy-3-methyltetrahydrofuran-3-yl)piperidin-4-yl)-7-methylisoquinolin-3-yl)cyclopropane-1-carboxamide]
16.2 nM | Cn1ncc(C2CC2C(=O)Nc2cc3cc(C4(C#N)CC45CC5)ccc3cn2)c1Cl (stereo not drawn) [Ex-2.78]
13.8 nM | CC(C)N1CCOC(CC(=O)Nc2cc3cc(C4(C#N)CC45CC5)ccc3cn2)C1 (single isomer, unassigned) [Ex-1.46, (R or S)-N-(6-(1-cyanospiro[2.2]pentan-1-yl)isoquinolin-3-yl)-2-(4-isopropylmorpholin-2-yl)acetamide]
0.0813 nM | Cc1cc2cnc(NC(=O)C3CC3c3ccn(C)n3)cc2cc1C1CCN(C2(C)COCC2F)CC1 (single isomer, unassigned) [Ex-16.1]
2.34 nM | CCC(=O)N1CCC(C(=O)Nc2cc3cc(C4(C#N)CC45CC5)ccc3cn2)CC1 (single isomer, unassigned) [Ex-1.32, N-(6-((R or S)-1-cyanospiro[2.2]pentan-1-yl)isoquinolin-3-yl)-1-propionylpiperidine-4-carboxamide]
70.8 nM | Cc1cc2cnc(NC(=O)C3CC34CCOC4)cc2cc1C1CCN(C2(C)COCC2F)CC1 (single isomer, unassigned) [Ex-15.11, N-(6-(1-(4-fluoro-3-methyltetrahydrofuran-3-yl)piperidin-4-yl)-7-methylisoquinolin-3-yl)-5-oxaspiro[2.4]heptane-1-carboxamide]
2.4 nM | Cc1cc2cnc(NC(=O)C3CC34CCOC4)cc2cc1C1CCN(C2(C)COCC2F)CC1 (single isomer, unassigned) [Ex-15.9, N-(6-(1-(4-fluoro-3-methyltetrahydrofuran-3-yl)piperidin-4-yl)-7-methylisoquinolin-3-yl)-5-oxaspiro[2.4]heptane-1-carboxamide]
479 nM | CC1(C)CC(C(=O)Nc2cc3cc(C4CCC(N5CCC(F)C5)CC4)c(Cl)cc3cn2)CCO1 (single isomer, unassigned) [Ex-5.13, N-(7-chloro-6-(4-(3-fluoropyrrolidin-1-yl)cyclohexyl)isoquinolin-3-yl)-2,2-dimethyltetrahydro-2H-pyran-4-carboxamid]
2.24 nM | CC1(C)CC(C(=O)Nc2cc3cc(C4CCC(N5CCC(F)C5)CC4)c(Cl)cc3cn2)CCO1 (single isomer, unassigned) [Ex-5.12, N-(7-chloro-6-(4-(3-fluoropyrrolidin-1-yl)cyclohexyl)isoquinolin-3-yl)-2,2-dimethyltetrahydro-2H-pyran-4-carboxamid]
22.4 nM | CCC1C(C(=O)Nc2cc3cc(C4CC(C#N)C4)c(Cl)cc3cn2)C1c1cnn(C)c1 (stereo not drawn) [Ex-9.18, N-(7-chloro-6-(3-cyanocyclobutyl)isoquinolin-3-yl)-2-ethyl-3-(1-methyl-1H-pyrazol-4-yl)cyclopropane-1-carboxamide]
0.955 nM | Cc1cc2cnc(NC(=O)C3CC3c3ccccn3)cc2cc1C1CCN(C2(C)CCOC2)CC1 (single isomer, unassigned) [Ex-16.11, N-(7-methyl-6-(1-(3-methyltetrahydrofuran-3-yl)piperidin-4-yl)isoquinolin-3-yl)-2-(pyridin-2-yl)cyclopropane-1-carboxamide]
3.63 nM | N#CC1(c2ccc3cnc(NC(=O)C4CC4)cc3c2)CC12CC2 (single isomer, unassigned) [Ex-18.2, N-(6-(1-cyanospiro[2.2]pentan-1-yl)isoquinolin-3-yl)cyclopropanecarboxamide]

IC50 | Compound
0.0813 nM | CC1(N2CCC(c3cc4cc(NC(=O)C5CC5C#N)ncc4cc3Cl)CC2)COCC1O (stereo not drawn) [Ex-2.32]
0.182 nM | CC1(N2CCC(c3cc4cc(NC(=O)C5C6CCCC65)ncc4cc3Cl)CC2)COCC1O (single isomer, unassigned) [Ex-1.20, N-(7-chloro-6-(1-((3R,4R or 3S,4S)-4-hydroxy-3-methyltetrahydrofuran-3-yl)piperidin-4-yl)isoquinolin-3-yl)bicyclo[3.1.0]hexane-6-carboxamide]
0.112 nM | CC1(N2CCC(c3cc4cc(NC(=O)c5cnn(C6CC6)c5Cl)ncc4cc3Cl)CC2)COCC1F (single isomer, unassigned) [Ex-1.51, 5-chloro-N-(7-chloro-6-(1-((3R,4R or 3S,4S)-4-fluoro-3-methyltetrahydrofuran-3-yl)piperidin-4-yl)isoquinolin-3-yl)-1-cyclopropyl-1H-pyrazole-4-carboxamide]
1.17 nM | O=C(Nc1cc2cc(C3CCN(C4COCC4O)CC3)c(Cl)cc2cn1)C1CC1 (single isomer, unassigned) [Ex-12.3, N-(7-chloro-6-(1-(4-hydroxytetrahydrofuran-3-yl)piperidin-4-yl)isoquinolin-3-yl)cyclopropanecarboxamide]
2.69 nM | CC(C)(O)C1CC1C(=O)Nc1cc2cc(C3CCN(C4(C)CCOC4)CC3)c(Cl)cc2cn1 (single isomer, unassigned) [Ex-6.14, N-(7-chloro-6-(1-(3-methyltetrahydrofuran-3-yl)piperidin-4-yl)isoquinolin-3-yl)-2-(2-hydroxypropan-2-yl)cyclopropane-1-carboxamide]
316 nM | Cn1cc(C(=O)Nc2cc3cc(C4CCN([C@]5(C)COC[C@@H]5O)CC4)c(Cl)cc3cn2)cn1 (single isomer, unassigned) [Ex-12.8, N-(7-chloro-6-(1-(4-hydroxy-3-methyltetrahydrofuran-3-yl)piperidin-4-yl)isoquinolin-3-yl)-1-methyl-1H-pyrazole-4-carboxamide]
0.151 nM | CC(C)(O)C1CC1C(=O)Nc1cc2cc(C3CCN(C4(C)COCC4O)CC3)c(Cl)cc2cn1 (single isomer, unassigned) [Ex-4.9, Trans-N-(7-chloro-6-(1-(4-hydroxy-3-methyltetrahydrofuran-3-yl)piperidin-4-yl)isoquinolin-3-yl)-2-(2-hydroxypropan-2-yl)cyclopropane-1-carboxamide]
257 nM | CC1(N2CCC(c3cc4cc(NC(=O)C5CC5c5cc(F)ccn5)ncc4cc3Cl)CC2)COCC1O (single isomer, unassigned) [Ex-4.40, N-(7-chloro-6-(1-(4-hydroxy-3-methyltetrahydrofuran-3-yl)piperidin-4-yl)isoquinolin-3-yl)-2-(4-fluoropyridin-2-yl)cyclopropane-1-carboxamide]
112 nM | CC1(N2CCC(c3cc4cc(NC(=O)C5CC56CCOC6)ncc4cc3Cl)CC2)COCC1F (single isomer, unassigned) [Ex-6.2, (R or S)-N-(7-chloro-6-(1-((3R,4R or 3S,4S)-4-fluoro-3-methyltetrahydrofuran-3-yl)piperidin-4-yl)isoquinolin-3-yl)-5-oxaspiro [2.4] heptane-1-carboxamide]
4.57 nM | CC1(N2CCC(c3cc4cc(NC(=O)C5CC56CCOCC6)ncc4cc3Cl)CC2)CCOC1 (stereo not drawn) [Ex-2.22]
20.4 nM | N#CC1(c2ccc3cnc(NC(=O)[C@@H]4C[C@@H](O)[C@H](F)C4)cc3c2)CC12CC2 (single isomer, unassigned) [Ex-1.29, (1R,3R,4R)-N-(6-((R or S)-1-cyanospiro[2.2]pentan-1-yl)isoquinolin-3-yl)-3-fluoro-4-hydroxycyclopentane-1-carboxamide]
31.6 nM | N#CC1(c2ccc3cnc(NC(=O)C4CCN(CC(F)(F)F)C4)cc3c2)CC12CC2 (stereo not drawn) [Ex-2.43]
0.513 nM | CC1(N2CCC(c3cc4cc(NC(=O)[C@@H]5CCCO5)ncc4cc3Cl)CC2)COCC1O (stereo partly drawn) [Ex-2.28]
1.1 nM | CC1CC1C(=O)Nc1cc2cc(C3CCN(C4COC4)CC3)c(Cl)cc2cn1 (single isomer, unassigned) [Ex-9.5, N-(7-chloro-6-(1-(oxetan-3-yl)piperidin-4-yl)isoquinolin-3-yl)-2-methylcyclopropane-1-carboxamide]
3.72 nM | Cc1cc2cnc(NC(=O)C3CC34CCOC4)cc2cc1C1CCN(C2(C)COCC2F)CC1 (single isomer, unassigned) [Ex-15.14, N-(6-(1-(4-fluoro-3-methyltetrahydrofuran-3-yl)piperidin-4-yl)-7-methylisoquinolin-3-yl)-5-oxaspiro[2.4]heptane-1-carboxamide]
0.0813 nM | CCC1C(C(=O)Nc2cc3cc(C4CCN(C5(C)COCC5F)CC4)c(Cl)cc3cn2)C1c1cnn(C)c1 (single isomer, unassigned) [Ex-1.34, (1R,2R,3R or 1R,2S,3R or 1S,2R,3S, or 1S,2S,3S)-N-(7-chloro-6-(1-((3R,4R or 3S,4S)-4-fluoro-3-methyltetrahydrofuran-3-yl)piperidin-4-yl)isoquinolin-3-yl)-2-ethyl-3-(1-methyl-1H-pyrazol-4-yl)cyclopropane-1-carboxamide]

From patent US20240398784A1, “C-LINKED ISOQUINOLINE AMIDES AS LRRK2 INHIBITORS, PHARMACEUTICAL COMPOSITIONS, AND USES THEREOF” (Merck Sharp & Dohme LLC, priority 2021, published 2024)
